Assay results as given in paper PMC11470414, “In vitro assessment of Dracocephalum lindbergii for growth inhibition, apoptosis induction, and cytokine modulation against Leishmaniamajor” (Heliyon, 2024).
In brackets after ≈: the same amount, converted by molar mass. Like-named read-outs stand apart in the source and are kept apart here.

Columns and labels:
[1] = tested on: L. major intramacrophage amastigotes; test: Anti-amastigote activity: counting Leishman bodies in 100 Giemsa-stained macrophages; type: cell-based, Leishmania major; details: for IC50: Leishmania major, Macrophage
Procedure: To assess the leishmanicidal effect on L. major intramacrophage amastigotes, macrophages (10⁷ cells) were cultured for 24 h. Subsequently, 200 μL of metacyclic promastigotes were introduced to the macrophages at a 10:1 ratio. […] The cells were washed with 50 μL PBS to eliminate free parasites, fixed with methanol, and stained using Giemsa. The IC₅₀, defined as the concentration required to inhibit 50 % of the leishmanial organisms, was determined by counting Leishman bodies (amastigotes) in 100 macrophages under an optical microscope. All experiments were performed in triplicate.
To evaluate the leishmanicidal effects on L. major intramacrophage amastigotes, macrophages (1 × 10⁷ cells) were cultured for 24 h. Following this, 200 μL of metacyclic promastigotes were added to the macrophages at a 10:1 ratio. […] The cells were then washed with 50 μL PBS to remove any free parasites, fixed in methanol, and stained with Giemsa. The IC₅₀, or the concentration that inhibits 50 % of the leishmanial organisms, was assessed by counting Leishman bodies (amastigotes) in 100 macrophages under an optical microscope. Each experiment was conducted in triplicate, including negative controls (macrophages and parasites without treatment) and positive controls (macrophages and parasites treated with a known effective drug) for comparison.

L. major promastigotes = test: Anti-promastigote activity (MTT, IC50); type: cell-based, Leishmania major; details: for IC50: Leishmania major
Procedure: (§1) To assess the impact of the D. lindbergii fraction on L. major promastigotes, amastigotes, and macrophages, cell viability was determined using the 3-(4,5-dimethylthiazol-2-yl)-2,5-diphenyl tetrazolium bromide (MTT). L. major in the logarithmic growth phase (1 × 10⁶) was plated in a 96-well microplate using RPMI-1640 medium supplemented with 10 % FBS and treated with different concentrations of the samples. The plates were then incubated. Subsequently, 10 μL of MTT (Sigma Chemical Co., St. Louis, MO) at a concentration of 5 mg/mL was added to each well. After incubation, DMSO was added to stop the reactions, and the optical density (OD) absorbance of the samples was measured at 570 nm using an ELISA plate reader (BioTek Company, USA). The results were analyzed by calculating the inhibition percentage through linear regression.
Drug susceptibility assays were conducted using promastigotes in the logarithmic growth phase. A volume of 90 μL of cultured L. major promastigotes (1 × 10⁶ cells/mL) was transferred to each well of a 96-well microplate. […] The reactions were stopped, ELISA readings were taken, and the IC₅₀ (50 % inhibitory concentration) was calculated according to established protocols.

L. major amastigotes = test: Apoptotic profile by flow cytometry (PE-Annexin V / 7-AAD); type: cell-based, Leishmania major; details: 100 μg/mL, vs negative control P < 0.001
Procedure: Apoptosis in L. major amastigotes was evaluated using flow cytometry with the BD Annexin V/PE Apoptosis Detection Kit (Fisher Scientific). […] After treatment, the parasites were washed with PBS and incubated in the dark at 25 °C with 5 μL of PE-Annexin V and 7 μL of 7-AAD for 15 min. The proportion of apoptotic parasites was then evaluated using FlowJo software.

L. major = tested on: L. major; design: method as in PMID 33531168; details: after 16 h of incubation; control 14 %; cited from earlier work
[2] = DPPH radical-scavenging antioxidant assay; details: DPPH method, 517 nm
Procedure: The scavenging effect on 2,2-diphenyl-1-picrylhydrazyl (DPPH) free radicals was determined based on the reduction of DPPH as a stable free radical. The optical densities were measured at a wavelength of 517 nm. The elimination of free radicals was calculated using the following formula:= (absorbance of control-absorbance of the sample) / (absorbance of control) × 100.

[3] = Toxicity on macrophages (MTT, CC50); type: cell-based; details: human, THP-1 macrophage cell line
Procedure: (§2) The promastigote form of L. major (MRHO/IR/75/ER), the national standard isolate, was obtained from the Pasteur Institute of Iran and cultured at 25 °C in RPMI-1640 medium containing 10 % heat-inactivated FBS and 1 % penicillin/streptomycin. The THP-1 macrophage cell line, provided by the Kerman Leishmaniasis Research Center, was grown in Dulbecco's Modified Eagle Medium (DMEM) supplemented with 10 % FBS and 0.5 % antibiotics (Sigma, Poole, UK), and incubated at 37 °C with 5 % CO₂ [21].
as §1

[4] = tested on: macrophage cell line (THP-1); test: Toxicity on macrophages (MTT, CC50); type: cell-based
Procedure: as §2, §1

Compound	average number of intramacrophage amastigotes (Mean ± SD) ([1]; 24 h, 12.5 μg/mL)	average number of intramacrophage amastigotes (Mean ± SD) ([1]; 24 h, 25 μg/mL)	average number of intramacrophage amastigotes (Mean ± SD) ([1]; 24 h, 50 μg/mL)	average number of intramacrophage amastigotes (Mean ± SD) ([1]; 24 h, 100 μg/mL)	average number of intramacrophage amastigotes (Mean ± SD) ([1]; 24 h, 200 μg/mL)	average number of intramacrophage amastigotes (Mean ± SD) ([1]; 24 h, 400 μg/mL)	average number of intramacrophage amastigotes (Mean ± SD) ([1]; 48 h, 12.5 μg/mL)	average number of intramacrophage amastigotes (Mean ± SD) ([1]; 48 h, 25 μg/mL)	average number of intramacrophage amastigotes (Mean ± SD) ([1]; 48 h, 50 μg/mL)	average number of intramacrophage amastigotes (Mean ± SD) ([1]; 48 h, 100 μg/mL)	average number of intramacrophage amastigotes (Mean ± SD) ([1]; 48 h, 200 μg/mL)	average number of intramacrophage amastigotes (Mean ± SD) ([1]; 48 h, 400 μg/mL)	average number of intramacrophage amastigotes (Mean ± SD) ([1]; 72 h, 12.5 μg/mL)	average number of intramacrophage amastigotes (Mean ± SD) ([1]; 72 h, 25 μg/mL)	average number of intramacrophage amastigotes (Mean ± SD) ([1]; 72 h, 50 μg/mL)	average number of intramacrophage amastigotes (Mean ± SD) ([1]; 72 h, 100 μg/mL)	average number of intramacrophage amastigotes (Mean ± SD) ([1]; 72 h, 200 μg/mL)	average number of intramacrophage amastigotes (Mean ± SD) ([1]; 72 h, 400 μg/mL)	induction of apoptosis in intra-macrophage amastigotes (L. major amastigotes)	further results
meglumine antimoniate [MAT]	31.1 ± 4.2	22.3 ± 3.1	18.6 ± 2.5	11.4 ± 2.2	2.1 ± 0.1	0.0 ± 0.0	39.6 ± 1.1	27.6 ± 1.8	18.4 ± 2.0	8.6 ± 0.9	2.2 ± 0.4	0.0 ± 0.0	49.3 ± 5.7	40.3 ± 6.4	31.2 ± 4.1	18.4 ± 2.5	8.6 ± 0.2	0.0 ± 0.0	significant induction of apoptosis	Amastigote (24 h) IC50 ± SD ([1]; 24 h): 127.3 ± 14.9; Amastigote (48h) IC50 ± SD ([1]; 48 h): 112.6 ± 9.5; Amastigote (72h) IC50 ± SD ([1]; 72 h): 93.6 ± 15.2; Promastigote (24 h) IC50 ± SD (L. major promastigotes; 24 h): 301.8 ± 24.3; Promastigote (48h) IC50 ± SD (L. major promastigotes; 48 h): 286.2 ± 17.3; Promastigote (72h) IC50 ± SD (L. major promastigotes; 72 h): 251.6 ± 28.4
COc1cc(/C=C/C(=O)CC(=O)/C=C/c2ccc(O)c(OC)c2)ccc1O [curcumin]	–	–	–	–	–	–	–	–	–	–	–	–	–	–	–	–	–	–	–	maximum accumulation of S-phase cells (L. major): about 33%
COc1ccc(O)c(C(C)(C)C)c1 [BHA, butylated hydroxyanisole]	–	–	–	–	–	–	–	–	–	–	–	–	–	–	–	–	–	–	–	IC50 of DPPH radical scavenging [2]: 249.3 µg/mL
C[C@@H]1[C@H](O)[C@@H](C)/C=C/C=C/C=C/C=C/C=C/C=C/C=C/[C@H](O[C@@H]2O[C@H](C)[C@@H](O)[C@H](N)[C@@H]2O)C[C@@H]2O[C@](O)(C[C@@H](O)C[C@@H](O)[C@H](O)CC[C@@H](O)C[C@@H](O)CC(=O)O[C@H]1C)C[C@H](O)[C@H]2C(=O)O [Amphotericin B]	34.2 ± 3.6	25.3 ± 4.2	20.4 ± 1.8	13.6 ± 2.6	3.6 ± 0.4	0.0 ± 0.0	41.4 ± 3.0	30.1 ± 2.2	21.6 ± 2.4	10.1 ± 1.9	2.6 ± 0.3	0.0 ± 0.0	50.4 ± 4.8	42.3 ± 5.2	33.4 ± 3.0	20.4 ± 2.4	10.3 ± 0.8	0.0 ± 0.0	significant induction of apoptosis	IC50 ([1]; 24 h, read-out: Amastigote (24 h) IC50 ± SD): 134 ± 18.6 µg/mL (≈ 145 µM); IC50 ([1]; 48 h, read-out: Amastigote (48h) IC50 ± SD): 129 ± 14.2 µg/mL (≈ 139 µM); IC50 ([1]; 72 h, read-out: Amastigote (72h) IC50 ± SD): 101 ± 18.3 µg/mL (≈ 110 µM); IC50 (L. major promastigotes; 24 h, read-out: Promastigote (24 h) IC50 ± SD): 308 ± 22 µg/mL (≈ 333 µM); IC50 (L. major promastigotes; 48 h, read-out: Promastigote (48h) IC50 ± SD): 294 ± 15.3 µg/mL (≈ 318 µM); IC50 (L. major promastigotes; 72 h, read-out: Promastigote (72h) IC50 ± SD): 264 ± 20.7 µg/mL (≈ 285 µM); CC50 at 24 h ([3]; 24 h): 792 ± 28.6 µg/mL (≈ 857 µM); CC50 at 48 h ([3]; 48 h): 772 ± 24.6 µg/mL (≈ 836 µM); CC50 at 72 h ([3]; 72 h): 749 ± 18.6 µg/mL (≈ 810 µM); SI= CC50 Macrophages/IC50 Amastigotes (Selectivity Index) ([4]; 24 h): 5.93; SI = CC50Macrophages/IC50Amastigotes (Selectivity Index) ([4]; 72 h): 7.40
